# Source: patent US20110118348A1, “Methods of stabilizing latanoprost in an aqueous solution” (SANTEN PHARMACEUTICAL CO., LTD., priority 2002, published 2011)
# Marks after values point to notes of the source that are not given here.
# Experiment: Stability Test of Latanoprost 1: residual ratio of latanoprost in phosphate buffer at each pH after storage at 60° C. or 70° C. (HPLC)
# Assay type: physicochemical
# Conditions: for Residual ratio (%): pH 8.0, phosphate buffer
# Description: 1) Latanoprost (0.0025 g) was weighed out in a 50 ml-beaker, a phosphate buffer (50 ml) having each pH (4.0, 5.0, 5.5, 6.0, 6.25, 6.5, 6.7 or 8.0) prepared in advance was added to the beaker, and the mixture was stirred with a magnetic stirrer. The mixture was stirred while warming it in a water bath at about 80° C. for about 30 minutes to dissolve latanoprost. 2) It was confirmed that latanoprost was dissolved, and pH was confirmed. 3) A glass ampoule was charged with each prepared solution (2.5 ml) and sealed by melting it. 4) It was stored at 60° C. or 70° C. 5) Sampling was carried out with time until 28th day after starting storage, latanoprost contents were measured by high performance liquid chromatography, and residual ratios were calculated. Samples having residual ratios of 95% or higher after storage at 60° C. for 28 days and residual ratios of 90% or higher after storage at 70° C. for 28 days were judged to be stable.
structure (smiles),measurement,setting,value
"CC(C)OC(=O)CCC/C=C\C[C@@H]1[C@@H](CC[C@@H](O)CCc2ccccc2)[C@H](O)C[C@@H]1O [latanoprost, isopropyl (Z)-7[(1R,2R,3R,5S)3,5-dihydroxy-2-[(3R)-3-hydroxy-5-phenylpentyl]cyclopentyl]-5-heptanoate]",Residual ratio (%) after storage for 28 days,"60° C., pH 4.0, phosphate buffer",87.4%
same,Residual ratio (%) after storage for 28 days,"60° C., pH 5.0, phosphate buffer",98.9%
same,Residual ratio (%) after storage for 28 days,"60° C., pH 5.5, phosphate buffer",98.0%
same,Residual ratio (%) after storage for 28 days,"60° C., pH 6.0, phosphate buffer",98.9%
same,Residual ratio (%) after storage for 28 days,"60° C., pH 6.25, phosphate buffer",95.0%
same,Residual ratio (%) after storage for 28 days,"60° C., pH 6.5, phosphate buffer",92.4%
same,Residual ratio (%) after storage for 28 days,"60° C., pH 6.7, phosphate buffer",93.4%
same,Residual ratio (%),"60° C., value on 21st day",30.0* %
same,Residual ratio (%) after storage for 28 days,"70° C., pH 4.0, phosphate buffer",76.7%
same,Residual ratio (%) after storage for 28 days,"70° C., pH 5.0, phosphate buffer",94.9%
same,Residual ratio (%) after storage for 28 days,"70° C., pH 5.5, phosphate buffer",94.6%
same,Residual ratio (%) after storage for 28 days,"70° C., pH 6.0, phosphate buffer",93.1%
same,Residual ratio (%) after storage for 28 days,"70° C., pH 6.25, phosphate buffer",92.0%
same,Residual ratio (%) after storage for 28 days,"70° C., pH 6.5, phosphate buffer",82.7%
same,Residual ratio (%),"70° C., value on 12th day",14.1** %
